Laboratory results as given in ChEMBL document CHEMBL1201862, “PubChem BioAssay data set” (2004).
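Where inhibition never reached the appropriate level, the endpoint shown equals the highest concentration tested. Otherwise, values were interpolated linearly from a five-concentration, 48-hour dose response in 96-well plates. At the GI50, growth is halved.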 Active and inactive are the calls of the source. Cut-off read from the data, not from the text of the source: active = GI50 up to about 1.1 µM and inactive = higher.

Tests used:
Test in all cases: DTP human tumour cell line panel, 48 h
LOX IMVI = system: LOX IMVI
OVCAR-4 = system: OVCAR-4
RXF 393 = system: RXF 393
MDA-MB-231 = system: MDA-MB-231
IGROV-1 = system: IGROV-1
DU-145 = system: DU-145
SF-295 = system: SF-295
RPMI-8226 = system: RPMI-8226
HCT-15 = system: HCT-15
SF-268 = system: SF-268
EKVX = system: EKVX
A498 = system: A498
OVCAR-8 = system: OVCAR-8
A549 = system: A549
SK-MEL-5 = system: SK-MEL-5
UACC-62 = system: UACC-62
COLO 205 = system: COLO 205
HOP-62 = system: HOP-62
U-251 = system: U-251
ACHN = system: ACHN
MCF7 = system: MCF7
SNB-19 = system: SNB-19
Malme-3M = system: Malme-3M
HCT-116 = system: HCT-116
M14 = system: M14
SW-620 = system: SW-620
Hs-578T = system: Hs-578T
UACC-257 = system: UACC-257
SN12C = system: SN12C
HT-29 = system: HT-29
MDA-N = system: MDA-N
MDA-MB-435 = system: MDA-MB-435
CAKI-1 = system: CAKI-1
PC-3 = system: PC-3
MOLT-4 = system: MOLT-4
NCI-H23 = system: NCI-H23
NCI/ADR-RES = system: NCI/ADR-RES
NCI-H460 = system: NCI-H460
OVCAR-5 = system: OVCAR-5
SK-MEL-28 = system: SK-MEL-28
SF-539 = system: SF-539
BT-549 = system: BT-549
OVCAR-3 = system: OVCAR-3
SK-MEL-2 = system: SK-MEL-2
CCRF-CEM = system: CCRF-CEM
TK-10 = system: TK-10
786-0 = system: 786-0
KM12 = system: KM12
NCI-H522 = system: NCI-H522
SK-OV-3 = system: SK-OV-3
HL-60 = system: HL-60
T47D = system: T47D

C=C[C@@H]1C[C@]2(C(=O)OC)Cc3nc4ccccc4nc3CC(C(=O)OC)=C2O1
GI50 (LOX IMVI): 45.6 µM (inactive) | GI50 (OVCAR-4): > 100 µM (inactive) | GI50 (RXF 393): > 100 µM (inactive) | GI50 (MDA-MB-231): 92.9 µM (inactive) | GI50 (IGROV-1): 61.2 µM (inactive) | GI50 (DU-145): > 100 µM (inactive) | GI50 (SF-295): 93.5 µM (inactive) | GI50 (RPMI-8226): 34 µM (inactive) | GI50 (HCT-15): 57.1 µM | GI50 (SF-268): > 100 µM (inactive) | GI50 (EKVX): > 100 µM (inactive) | GI50 (A498): > 100 µM (inactive) | GI50 (OVCAR-8): > 100 µM (inactive) | GI50 (A549): > 100 µM (inactive) | GI50 (SK-MEL-5): 78.9 µM (inactive) | GI50 (UACC-62): > 100 µM (inactive) | GI50 (COLO 205): 35.2 µM (inactive) | GI50 (HOP-62): > 100 µM (inactive) | GI50 (U-251): 92.7 µM (inactive) | GI50 (ACHN): > 100 µM (inactive) | GI50 (MCF7): 40.6 µM (inactive) | GI50 (SNB-19): > 100 µM (inactive) | GI50 (Malme-3M): > 100 µM (inactive) | GI50 (HCT-116): > 100 µM (inactive) | GI50 (M14): 80.7 µM (inactive) | GI50 (SW-620): 58.5 µM (inactive) | GI50 (Hs-578T): > 100 µM (inactive) | GI50 (UACC-257): 76.7 µM (inactive) | GI50 (SN12C): > 100 µM (inactive) | GI50 (HT-29): > 100 µM (inactive) | GI50 (MDA-N): 46.8 µM (inactive) | GI50 (MDA-MB-435): 47.8 µM (inactive) | GI50 (CAKI-1): > 100 µM (inactive) | GI50 (PC-3): 62.4 µM (inactive) | GI50 (MOLT-4): 42.5 µM (inactive) | GI50 (NCI-H23): 69.8 µM (inactive) | GI50 (NCI/ADR-RES): > 100 µM (inactive) | GI50 (NCI-H460): > 100 µM (inactive) | GI50 (OVCAR-5): > 100 µM (inactive) | GI50 (SK-MEL-28): 53.8 µM (inactive) | GI50 (SF-539): > 100 µM (inactive) | GI50 (BT-549): 57.1 µM (inactive) | GI50 (OVCAR-3): 23 µM (inactive) | GI50 (SK-MEL-2): > 100 µM (inactive) | GI50 (CCRF-CEM): 41.8 µM (inactive) | GI50 (TK-10): > 100 µM (inactive) | GI50 (786-0): > 100 µM (inactive) | GI50 (KM12): 75.5 µM (inactive) | GI50 (NCI-H522): 64.6 µM (inactive) | GI50 (SK-OV-3): > 100 µM (inactive) | GI50 (HL-60): 80.5 µM (inactive) | GI50 (T47D): 85.5 µM (inactive)
